According to ChEMBL document CHEMBL1201862, “PubChem BioAssay data set” (2004):
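In this assay, cells in 96-well plates receive the compound at five concentrations for 48 hours. Endpoints are linearly interpolated between the surrounding concentrations. Here, GI50 denotes the concentration required for 50% inhibition of growth.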 Calls of active or inactive are those of the source. Cut-off read from the data, not from the text of the source: active = GI50 up to about 1.1 µM and inactive = higher.

Columns and labels:
Experiment in all cases: inhibition of tumour cell growth, NCI panel, 48 h
BT-549 = tested on: BT-549
SF-295 = tested on: SF-295
NCI-H522 = tested on: NCI-H522
HT-29 = tested on: HT-29
T47D = tested on: T47D
U-251 = tested on: U-251
UACC-62 = tested on: UACC-62
CCRF-CEM = tested on: CCRF-CEM
EKVX = tested on: EKVX
M14 = tested on: M14
SK-MEL-28 = tested on: SK-MEL-28
DU-145 = tested on: DU-145
SW-620 = tested on: SW-620
K562 = tested on: K562
Malme-3M = tested on: Malme-3M
ACHN = tested on: ACHN
OVCAR-5 = tested on: OVCAR-5
HOP-62 = tested on: HOP-62
SNB-75 = tested on: SNB-75
HCC 2998 = tested on: HCC 2998
HL-60 = tested on: HL-60
RPMI-8226 = tested on: RPMI-8226
OVCAR-3 = tested on: OVCAR-3
LOX IMVI = tested on: LOX IMVI
CAKI-1 = tested on: CAKI-1
786-0 = tested on: 786-0
HCT-15 = tested on: HCT-15
COLO 205 = tested on: COLO 205
MOLT-4 = tested on: MOLT-4
NCI-H23 = tested on: NCI-H23
NCI-H460 = tested on: NCI-H460
KM12 = tested on: KM12
IGROV-1 = tested on: IGROV-1
MDA-N = tested on: MDA-N
A498 = tested on: A498
Hs-578T = tested on: Hs-578T
PC-3 = tested on: PC-3
SK-MEL-5 = tested on: SK-MEL-5
SF-268 = tested on: SF-268
UACC-257 = tested on: UACC-257
SF-539 = tested on: SF-539
MDA-MB-231 = tested on: MDA-MB-231
SN12C = tested on: SN12C
SR = tested on: SR
HCT-116 = tested on: HCT-116
MCF7 = tested on: MCF7
NCI-H226 = tested on: NCI-H226
OVCAR-8 = tested on: OVCAR-8
A549 = tested on: A549
TK-10 = tested on: TK-10
UO-31 = tested on: UO-31
SK-OV-3 = tested on: SK-OV-3
OVCAR-4 = tested on: OVCAR-4
RXF 393 = tested on: RXF 393
HOP-92 = tested on: HOP-92
MDA-MB-435 = tested on: MDA-MB-435
SK-MEL-2 = tested on: SK-MEL-2
SNB-19 = tested on: SNB-19

**Q.** With `C=C1C(=O)OC2/C=C(\C)C(=O)CC3OC(C)(C)OC3(C)CC(OC(=O)/C(C)=C/C)C12` (stereo unspecified) as the compound, how does the GI50 (BT-549) read?
**A.** Its GI50 is 10.4 µM (inactive).

**Q.** What about the GI50 (SF-295) of the same compound?
**A.** The GI50 was 42 µM (inactive).

**Q.** And the GI50 (NCI-H522)?
**A.** The GI50 was 2.99 µM (inactive).

**Q.** And the GI50 (HT-29)?
**A.** The GI50 was 7.89 µM (inactive).

**Q.** What about the GI50 (T47D) of the same compound?
**A.** The GI50 was 17.6 µM (inactive).

**Q.** What about the GI50 (U-251) of the same compound?
**A.** Its GI50 is 27.5 µM (inactive).

**Q.** And the GI50 (UACC-62)?
**A.** The GI50 was 9.98 µM (inactive).

**Q.** What about the GI50 (CCRF-CEM) of the same compound?
**A.** Its GI50 is 0.897 µM (active).

**Q.** What about the GI50 (EKVX) of the same compound?
**A.** The GI50 was 14.2 µM (inactive).

**Q.** And the GI50 (M14)?
**A.** Its GI50 is 22.5 µM (inactive).

**Q.** And the GI50 (SK-MEL-28)?
**A.** Its GI50 is 11.9 µM (inactive).

**Q.** And the GI50 (DU-145)?
**A.** Its GI50 is 19.4 µM (inactive).

**Q.** What about the GI50 (SW-620) of the same compound?
**A.** Its GI50 is 4.69 µM (inactive).

**Q.** What about the GI50 (K562) of the same compound?
**A.** Its GI50 is 4.05 µM (inactive).

**Q.** And the GI50 (Malme-3M)?
**A.** The GI50 was 10.9 µM (inactive).

**Q.** What about the GI50 (ACHN) of the same compound?
**A.** The GI50 was 3.68 µM (inactive).

**Q.** What about the GI50 (OVCAR-5) of the same compound?
**A.** Its GI50 is 20.4 µM (inactive).

**Q.** And the GI50 (HOP-62)?
**A.** The GI50 was 58.1 µM (inactive).

**Q.** And the GI50 (SNB-75)?
**A.** The GI50 was > 42.9 µM (inactive).

**Q.** What about the GI50 (HCC 2998) of the same compound?
**A.** The GI50 was 15.9 µM (inactive).

**Q.** What about the GI50 (HL-60) of the same compound?
**A.** Its GI50 is 3.26 µM (inactive).

**Q.** What about the GI50 (RPMI-8226) of the same compound?
**A.** The GI50 was 3.66 µM (inactive).

**Q.** And the GI50 (OVCAR-3)?
**A.** The GI50 was 10.8 µM (inactive).

**Q.** And the GI50 (LOX IMVI)?
**A.** The GI50 was 12.2 µM (inactive).

**Q.** What about the GI50 (CAKI-1) of the same compound?
**A.** Its GI50 is 3.51 µM (inactive).

**Q.** What about the GI50 (786-0) of the same compound?
**A.** Its GI50 is 7.66 µM (inactive).

**Q.** What about the GI50 (HCT-15) of the same compound?
**A.** The GI50 was 4.49 µM.

**Q.** What about the GI50 (COLO 205) of the same compound?
**A.** Its GI50 is 6.35 µM (inactive).

**Q.** What about the GI50 (MOLT-4) of the same compound?
**A.** Its GI50 is 6.61 µM (inactive).

**Q.** What about the GI50 (NCI-H23) of the same compound?
**A.** Its GI50 is 20.2 µM (inactive).

**Q.** What about the GI50 (NCI-H460) of the same compound?
**A.** The GI50 was 17.1 µM (inactive).

**Q.** What about the GI50 (KM12) of the same compound?
**A.** The GI50 was 17.9 µM (inactive).

**Q.** And the GI50 (IGROV-1)?
**A.** Its GI50 is 14.4 µM (inactive).

**Q.** What about the GI50 (MDA-N) of the same compound?
**A.** Its GI50 is 13.2 µM (inactive).

**Q.** What about the GI50 (A498) of the same compound?
**A.** The GI50 was 21.9 µM (inactive).

**Q.** And the GI50 (Hs-578T)?
**A.** The GI50 was 28.9 µM (inactive).

**Q.** What about the GI50 (PC-3) of the same compound?
**A.** Its GI50 is 25.8 µM (inactive).

**Q.** And the GI50 (SK-MEL-5)?
**A.** The GI50 was 14.7 µM (inactive).

**Q.** And the GI50 (SF-268)?
**A.** Its GI50 is 12.6 µM (inactive).

**Q.** And the GI50 (UACC-257)?
**A.** The GI50 was 13.7 µM (inactive).

**Q.** And the GI50 (SF-539)?
**A.** The GI50 was 17.1 µM (inactive).

**Q.** What about the GI50 (MDA-MB-231) of the same compound?
**A.** The GI50 was 23.6 µM (inactive).

**Q.** What about the GI50 (SN12C) of the same compound?
**A.** Its GI50 is 20.7 µM (inactive).

**Q.** And the GI50 (SR)?
**A.** The GI50 was 3.05 µM (inactive).

**Q.** What about the GI50 (HCT-116) of the same compound?
**A.** Its GI50 is 7.43 µM (inactive).

**Q.** What about the GI50 (MCF7) of the same compound?
**A.** The GI50 was 7.46 µM (inactive).

**Q.** What about the GI50 (NCI-H226) of the same compound?
**A.** The GI50 was 23.4 µM (inactive).

**Q.** What about the GI50 (OVCAR-8) of the same compound?
**A.** The GI50 was 20.6 µM (inactive).

**Q.** What about the GI50 (A549) of the same compound?
**A.** The GI50 was 48.8 µM (inactive).

**Q.** And the GI50 (TK-10)?
**A.** Its GI50 is 13.2 µM (inactive).

**Q.** And the GI50 (UO-31)?
**A.** The GI50 was 13.9 µM (inactive).

**Q.** What about the GI50 (SK-OV-3) of the same compound?
**A.** The GI50 was 55.5 µM (inactive).

**Q.** What about the GI50 (OVCAR-4) of the same compound?
**A.** The GI50 was 17.6 µM (inactive).

**Q.** And the GI50 (RXF 393)?
**A.** Its GI50 is 12 µM (inactive).

**Q.** And the GI50 (HOP-92)?
**A.** Its GI50 is 13.6 µM (inactive).

**Q.** And the GI50 (MDA-MB-435)?
**A.** The GI50 was 19.6 µM (inactive).

**Q.** What about the GI50 (SK-MEL-2) of the same compound?
**A.** Its GI50 is 28.1 µM (inactive).

**Q.** What about the GI50 (SNB-19) of the same compound?
**A.** Its GI50 is > 80.9 µM (inactive).

**Q.** Which results are given for `O=C(Nn1c(-c2ccccc2)nc2ccccc2c1=O)c1cccc([N+](=O)[O-])c1`?
**A.** GI50 (BT-549): 32.3 µM (inactive); GI50 (NCI-H522): 67 µM (inactive); GI50 (HT-29): 79.8 µM (inactive); GI50 (T47D): < 0.01 µM (active); GI50 (U-251): 62.4 µM (inactive); GI50 (UACC-62): 29.2 µM (inactive); GI50 (CCRF-CEM): 52.5 µM (inactive); GI50 (EKVX): 57.9 µM (inactive); GI50 (M14): > 100 µM (inactive); GI50 (SK-MEL-28): 79.6 µM (inactive); GI50 (DU-145): > 100 µM (inactive); GI50 (SW-620): > 100 µM (inactive); GI50 (K562): > 100 µM (inactive); GI50 (ACHN): 86.7 µM (inactive); GI50 (OVCAR-5): > 100 µM (inactive); GI50 (HOP-62): > 100 µM (inactive); GI50 (SNB-75): > 100 µM (inactive); GI50 (HCC 2998): > 100 µM (inactive); GI50 (HL-60): > 100 µM (inactive); GI50 (RPMI-8226): 46.8 µM (inactive); GI50 (OVCAR-3): > 100 µM (inactive); GI50 (LOX IMVI): > 100 µM (inactive); GI50 (786-0): > 100 µM (inactive); GI50 (HCT-15): 55.7 µM; GI50 (COLO 205): 54.3 µM (inactive); GI50 (MOLT-4): 39.9 µM (inactive); GI50 (NCI-H23): 57.1 µM (inactive); GI50 (NCI-H460): 53.8 µM (inactive); GI50 (KM12): > 100 µM (inactive); GI50 (IGROV-1): > 100 µM (inactive); GI50 (MDA-N): > 100 µM (inactive); GI50 (A498): 48.9 µM (inactive); GI50 (Hs-578T): 95.3 µM (inactive); GI50 (PC-3): 43.1 µM (inactive); GI50 (SK-MEL-5): 37.6 µM (inactive); GI50 (SF-268): > 100 µM (inactive); GI50 (UACC-257): > 100 µM (inactive); GI50 (SF-539): > 100 µM (inactive); GI50 (SN12C): > 100 µM (inactive); GI50 (SR): 47.2 µM (inactive); GI50 (HCT-116): > 100 µM (inactive); GI50 (MCF7): 38 µM (inactive); GI50 (NCI-H226): 52.8 µM (inactive); GI50 (OVCAR-8): > 100 µM (inactive); GI50 (A549): 44.4 µM (inactive); GI50 (TK-10): 91.8 µM (inactive); GI50 (UO-31): 39.3 µM (inactive); GI50 (SK-OV-3): > 100 µM (inactive); GI50 (OVCAR-4): 86.1 µM (inactive); GI50 (RXF 393): > 100 µM (inactive); GI50 (HOP-92): 35.2 µM (inactive); GI50 (MDA-MB-435): > 100 µM (inactive); GI50 (SNB-19): 61.1 µM (inactive)
